pIC50: −log10 of the molar value. Counter-ions that a name gives are not always drawn. Like-named read-outs stand apart in the source and are kept apart here.
Experiments:
[1] = tested on: Zymosan Stimulated Macrophaqes; assay: Test A: Inhibition of Arachidonic Acid Release from Zymosan Stimulated Macrophages; assay type: cell-based, mouse (female MF1); conditions: inhibition of arachidonic acid release, six concentrations (100, 50, 20, 10, 5 and 1 μM), 5 h with zymosan, read-out: Test A IC50
Procedure: Inhibition of Arachidonic Acid Release from Zymosan Stimulated Macrophaqes
Female MF1 mice (weighing 20 to 25 g) were killed using a rising concentration of CO2. The mice were laid on their backs and the abdomens wiped with 70% alcohol. The skin was pulled back, exposing the peritoneal wall. Medium A (5 ml) (see below) was injected into the peritoneal cavity of each mouse followed by approximately 1 ml of air using a 20 ml syringe and a 21 G×40 mm needle in order to form a suspension of macrophage cells. The medium and cells were then removed using a 19 G×40 mm needle. The resulting suspension was returned to a sterile beaker kept on ice. The extracts from all the mice were pooled and this pooled cell suspension was counted using a Coulter counter and adjusted to a final cell count of 1-1.3×10^6 cells/ml prior to labelling with [^3 H]-arachidonic acid. Typically five mice provided sufficient cells for each multiwell plate.
Sufficient [^3 H]-arachidonic acid in ethanol to give a final concentration of 1.6 μCi/ml (equivalent to 40 μCi/plate) was blown to dryness under nitrogen. The arachidonic acid was then resuspended in 1 or 2 ml of the cell suspension which was then mixed with the remainder of the cell suspension in a centrifuge bottle. The labelled cell suspension was then plated out into sterile plastic 96 flat-bottomed well plates (250 μl per well) and incubated overnight at 37° C. in a moist atmosphere of 5% CO2, 95% air.
The following day, non-adherent cells were removed by washing 3 times with sterile phosphate buffered saline (PBS). The adherent peritoneal macrophages were then cultured for a further 24 hours in the presence or absence of drugs, in medium B (see below) at 37° in a 5% CO2 atmosphere in order to measure the effects of drugs on the spontaneous release of arachidonic acid in the absence of stimulus. After this incubation, supernatants were removed to give media 1 and stored in sealed multi-well plates at 4° C. prior to scintillation counting. Drugs which potentiated spontaneous release of arachidonic acid (125% of controls) were deemed to be toxic at the concentration at which this phenomenon occurred. The supernatants were replaced by fresh medium C containing fresh drug and a stimulus. Three drugs were tested at six concentrations (100, 50, 20, 10, 5 and 1 μM) in replicates of four on each plate. The other wells contained controls consisting of a positive control (e.g. dexamethasone), medium (B) only and medium C only.
Incubation was then continued for a further 5 hours, whereupon the supernatants were collected to give media 2 and the adherent cells washed with PBS. The cells were then lysed with 100 μl of 0.1% TRITON® X100 in a 0.1% solution of bovine serum albumin in 0.9% saline and mechanically disrupted to give cell lysates. These supernatants (media 2) and cell lysates (Cells) were also stored in sealed multi-well plates at 4° C. prior to scintillation counting. 200 μl aliquots of media, or 100 μl aliquots of cells were counted using 2 ml of OPTIPHASE "HIGH SAFE" (Trademark of LKB) as scintillant.
The percentage of arachidonic acid released was calculated using the mean values for each group of 4 wells in the following equation. [formula] cpm=courts per minute
The value for the arachidonic acid release in the absence of stimulus (spontaneous, cpm of media 2) from cells which had been exposed to neither stimulus nor drug was subtracted from all equivalent values (cpm media 2, stimulated with or without drug) to give the net stimulated release. The percentage inhibition of arachidonic acid release caused by a drug may then be calculated using the following equation. [formula]
Compounds of formula I were tested at six concentrations (100, 50, 20, 10, 5 and 1 μM) and IC50 values calculated. Compounds with IC50 values<100 μM are considered to be active. Advantageous compounds have an IC50 value <50 μM.
Medium A (for peritoneal lavage) […]

[2] = tested on: Carrageenan-induced rat paw oedema; assay: Test B: Carrageenan-induced rat paw oedema test; assay type: in vivo, rat (female); conditions: inhibition of paw oedema, 1 h before carrageenan, 3 h after injection; for inhibition in vivo at 100 mg/kg: Rattus norvegicus, po, 3 h
Procedure: Carrageenan-induced rat paw oedema test
Female rats, weight range 125-150 g were fasted overnight. One of the hind legs of each animal was marked with a line at the connection between the cuboid/navicular and calcaneus/talus bones. Groups of six rats were orally dosed at 10 ml/kg, in random order, with a given dose of the test compound given as a solution or suspension in 10% (w/v) aqueous acacia solution.
One hour after dosing, 0.1 ml of 1% (w/v) sterile carrageenan λ in normal saline was injected deeply into the plantar surface of the marked hind foot of each rat. The volume of the foot (up to the marked line) was measured immediately after injection using duplicate water displacement readings. Three hours after injection the foot volume was measured again and the percentage increase in foot volume relative to the initial reading was calculated.
The increase in foot volume (i.e. the degree of oedema) in drug treated animals when compared with that in the drug untreated control gave the degree of inhibition of paw oedema by the drug.
Compounds were considered to be active in this test if they produced a 20% or greater inhibition of paw oedema in at least two out of three tests after oral dosing at 100 mg/kg. Statistical significance was assessed using the Student't test for single dose studies and Dunnett's test for multiple dose studies. More advantageous compounds were active in both Tests A and B,

pIC50 ([1]; Mus musculus, Macrophage, 5 h) | pIC50 ([1]; listed as 68 (1)) | Structure (SMILES) | inhibition in vivo at 100 mg/kg [2] | pIC50 [1] | Test B % inhibition at 100 mg/kg ([2]; oral)
5.22 | – | Cc1cn(CCCNC(C)c2ccc(Cl)cc2)c(Cc2ccccc2)n1 (stereo not drawn) [Example 32, 3-[2-benzyl-4-methylimidazol-1-yl]-N-[1-(4-chlorophenyl)ethyl]propylamine] | 35% | – | –
5.00 | – | Cc1cn(CCCNC(C)c2ccc(Cl)cc2)c(-c2ccccc2)n1 (stereo not drawn) [Example 33, N-[1-(4-chlorophenyl)ethyl]-3-(4-methyl-2-phenyl-imidazol-1-yl)propylamine] | 2% | – | –
4.49 | – | c1ccc(C(NCCCn2ccnc2)c2ccccc2)cc1 [Example 34, N-benzhydryl-3-(imidazol-1-yl)propylamine dihydrochloride] | 47% | – | –
4.68 | – | Clc1ccc(CNCCCn2ccnc2)cc1Cl [Example 35, N-(3,4-dichlorobenzyl)-3-(imidazol-1-yl)propylamine] | 47% | – | –
5.00 | – | c1ccc(Oc2ccc(CNCCCn3ccnc3)cc2)cc1 [Example 39, 3-(Imidazol-1-yl)-N-(4-phenoxybenzyl)propylamine] | 35% | – | –
4.30 | – | Cc1cc(Cl)ccc1CNCCCn1ccnc1 [Example 40, N-(4-Chloro-2-methylbenzyl)-3-(imidazol-1-yl)propylamine dihydrochloride] | 31% | – | –
4.24 | – | Clc1ccc(CNCCCn2ccnc2)c(Cl)c1 [Example 41, N-(2,4-Dichlorobenzyl)-3-(imidazol-1-yl)propylamine] | 29% | – | –
4.31 | – | Cc1nccn1CCCNCc1ccc(Cl)cc1 [Example 43, N-(4-Chlorobenzyl)-3-(2-methylimidazol-1-yl)propylamine] | 33% | – | –
4.52 | – | Cc1cn(CCCNCc2ccc(Cl)cc2)cn1 [Example 44, N-(4-Chlorobenzyl)-3-(4-methylimidazol-1-yl)propylamine dihydrochloride] | 8% | – | –
5.10 | – | Cc1ncn(CCCNCc2ccc(Cl)cc2)c1C [Example 45, N-(4-Chlorobenzyl)-3-(4,5-dimethylimidazol-1-yl)propylamine dihydrochloride] | 6% | – | –
– | – | Cc1cn(CCCNCc2ccc(Cl)cc2)c(Cc2ccccc2)n1 [Example 47] | – | 5.15 | 35%
4.35 | – | COC(=O)c1ccc(CNCCCn2ccnc2C)cc1 [Example 49, methyl 4-[3-(2-methylimidazol-1-yl)propylaminomethyl]benzoate] | 0% | – | –
4.51 | – | COc1cc(C)c(CNCCCn2ccnc2)c(C)c1 [Example 50, 3-(imidazol-1-yl)-N-(4-methoxy-2,6-dimethylbenzyl)propylamine dihydrochloride] | 0% | – | –
4.70 | – | CCOC(=O)C=Cc1ccc(CNCCCn2ccnc2C)cc1 [Example 51, ethyl 4-[3-(2-methylimidazol-1-yl)propylaminomethyl]cinnamate dihydrochloride] | 1% | – | –
4.51 | – | CCc1nccn1CCCNC(C)c1ccc(Cl)cc1 (stereo not drawn) [Example 53, N-[1-(4-Chlorophenyl)ethyl]-3-(2-ethylimidazol-1-yl)propylamine dihydrochloride] | 27% | – | –
4.49 | – | CC(NCCCCCn1ccnc1)c1ccc(Cl)cc1 (stereo not drawn) [Example 55, N-[1-(4-Chlorophenyl)ethyl]-5-(imidazol-1-yl)pentylamine dioxalate] | 45% | – | –
4.26 | – | CC(NCC(C)(C)Cn1ccnc1)c1ccc(Cl)cc1 (stereo not drawn) [Example 58, N-[1-(4-chlorophenyl)ethyl]-3-(imidazol-1-yl)-2,2-dimethylpropylamine] | 79% | – | –
– | 4.46 | CC(C)(NCCCn1ccnc1)c1ccc(Cl)cc1 [Example 59, N-[1-(4-chlorophenyl)-1-methylethyl]-3-(imidazol-1-yl)propylamine] | 65% | 4.46 | –
5.05 | – | Cc1nccn1CCCNC(C)(C)c1ccc(Cl)cc1 [Example 60, N-[1-(4-chlorophenyl)-1-methylethyl]-3-(2-methylimidazol-1-yl)propylamine] | 59% | – | –
4.68 | – | CC(C)(NCCCCCn1ccnc1)c1ccc(Cl)cc1 [Example 62, N-[1-(4-chlorophenyl)-1-methylethyl]-5-(imidazol-1-yl)pentylamine] | 42% | – | –
4.74 | – | Clc1ccc(CNCCCn2cnc(Cl)c2Cl)cc1 [Example 64, N-(4-chlorobenzyl)-3-(4,5-dichloroimidazol-1-yl)propylamine dihydrochloride] | 30% | – | –
4.74 | – | CC(C)c1nccn1CCCNC(C)c1ccc(Cl)cc1 (stereo not drawn) [Example 65, N-[1-(4-Chlorophenyl)ethyl]-3-(2-isopropylimidazol-1-yl)propylamine] | 27% | – | –
4.89 | – | Cc1nc(C)n(CCCNC(C)c2ccc(Cl)cc2)c1C (stereo not drawn) [Example 66, N-[1-(4-Chlorophenyl)ethyl]-3-(2,4,5-trimethylimidazol-1-yl)propylamine] | 13% | – | –
4.74 | – | CC(NCCCn1cnc(Cl)c1Cl)c1ccc(Cl)cc1 (stereo not drawn) [Example 67, N-[1-(4-Chlorophenyl)ethyl]-3-(4,5-dichloroimidazol-1-yl)propylaminesesquihydrochloride] | 42% | – | –
4.96 | – | Cc1ncn(CCCNC(C)(C)c2ccc(Cl)cc2)c1C [Example 70, N-[1-(4-Chlorophenyl)-1-methylethyl]-3-(4,5-dimethylimidazol-1-yl)propylamine] | 21% | – | –
4.60 | – | CC(C)c1nccn1CCCNCc1ccc(Cl)cc1 [Example 71, N-(4-Chlorobenzyl)-3-(2-isopropylimidazol-1-yl)propylamine-dihydrochloride] | 10% | – | –
4.59 | – | CCc1nccn1CCCNCc1ccc(Cl)cc1 [Example 72, N-(4-Chlorobenzyl)-3-(2-ethylimidazol-1-yl)propylamine] | 18% | – | –
4.31 | – | Cc1ccc(C(C)(C)NCCCn2ccnc2C)cc1 [Example 73, 3-(2-Methylimidazol-1-yl)-N-[1-methyl-1-(p-tolyl)ethyl]propylamine dihydrochloride] | 8% | – | –
